In US7629150B2, “Transformed cell harboring DNA or RNA encoding sugar chain synthesizing agent having β1,3-N-acetylglucosaminyltransferase activity” (Kyowa Hakko Kirin Co., Ltd., priority 2000, dated 2009):

Experiments:
Assay type in all cases: biochemical
G6sec2 [1] = biological target: T1, G6sec2 (Homo sapiens, UniProt Q9BYG0); experiment: β1,3-N-acetylglucosaminyltransferase activity using pyridylaminated oligosaccharides as substrates; settings: pyridylaminated oligosaccharides 50 μmol/l, 37° C., 14.5 hours, LNnT defined as 100%
T1 construct: made in house; host or cells: Sf21 insect cells infected with pVL1393-F2G6sec2-derived recombinant baculovirus
T1 sequence (Q9BYG0 39-378): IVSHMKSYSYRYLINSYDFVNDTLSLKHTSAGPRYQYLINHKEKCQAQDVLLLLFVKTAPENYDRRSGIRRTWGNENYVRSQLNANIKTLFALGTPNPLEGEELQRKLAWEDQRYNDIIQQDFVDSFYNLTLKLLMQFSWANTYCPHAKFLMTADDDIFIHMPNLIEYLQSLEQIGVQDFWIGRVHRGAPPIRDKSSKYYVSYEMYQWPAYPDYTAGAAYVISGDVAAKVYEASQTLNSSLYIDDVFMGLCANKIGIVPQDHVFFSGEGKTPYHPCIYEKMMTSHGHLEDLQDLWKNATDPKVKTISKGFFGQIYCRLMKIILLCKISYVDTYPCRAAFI
Description: After carrying out the reaction at 37° C. for 14.5 hours in 30 μl of an assay solution [150 mmol/l sodium cacodylate (pH 7.2), 50 mmol/l UDP-GlcNAc (manufactured by SIGMA), 0.4% Triton CF-54, 10 mmol/l MnCl2, 50 μmol/l pyridylaminated sugar chain substrate, a purified enzyme solution (G6sec2)], the product was detected by HPLC. The purified enzyme (G6sec2) was obtained according to the method shown in Example 8(6). The purified enzyme (280 μl) was prepared from 30 ml of a culture supernatant of Sf21 infected with the recombinant virus derived from pVL1393-F2G6sec2, and the assay was carried out using 5 μl thereof. As substrates, LnNT, lacto-N-tetraose (Galβ1-3GlcNAcβ1-3Galβ1-4Glc (hereinafter referred to as “LNT”), lacto-N-fucopentaose II (Galβ1-3(Fucα1-4)GlcNAcβ1-3Galβ1-4Glc; hereinafter referred to as “LNFP-II”), lacto-N-fucopentaose III (Galβ1-4(Fucα1-3)GlcNAcβ1-3Galβ1-4Glc; hereinafter referred to as “LNFP-III”), lacto-N-fucopentaose V (Galβ1-3GlcNAcβ1-3Galβ1-4(Fucα1-3)Glc; hereinafter referred to as “LNFP-V”), and lacto-N-difucohexaose II (Galβ1-3(Fucα1-4)GlcNAcβ1-3Galβ1-4(Fucα1-3)Glc; hereinafter referred to as “LNDFH-II”) (all manufactured by Oxford Glycosystems) were fluorescently-labeled with aminopyridine and used. The substrates were fluorescently-labeled according to a conventional method [Agric. Biol. Chem., 54, 2169 (1990)].
After carrying out the reaction on each substrate using an assay solution containing UDP-GlcNAc (saccharide donor) and an assay solution containing no donor and subsequently analyzing by HPLC, peaks appeared only in the assay solution containing UDP-GlcNAc was defined as products.
The assay solution after completion of the reaction was treated at 100° C. for 5 minutes and then centrifuged at 10,000×g for 5 minutes to obtain a supernatant, and a part thereof (5 μl) was subjected to HPLC.
The HPLC was carried out using TSK-gel ODS-80Ts Column (4.6×300 mm; manufactured by TOSOH) and 0.02 mol/l ammonium acetate buffer (pH 4.0) as the eluant at an elution temperature of 50° C. and a flow rate of 0.5 ml/min.
Detection and determination of products were carried out using a fluorescence spectrophotometer FP-920 (manufactured by JASCO Corporation) (excitation wavelength: 320 nm, radiation wavelength: 400 nm).

G6sec2 [2] = biological target: T1, G6sec2; experiment: β1,3-N-acetylglucosaminyltransferase activity of purified FLAG peptide-fused G6 polypeptide, 2-aminobenzamide-labeled oligosaccharide substrates; settings: 2-aminobenzamide-labeled oligosaccharides, LNnT defined as 100%; for Relative activity (%) Test 2 G6sec2: enzyme prepared again
Description: (§1) β1,3-N-Acetylglucosaminyltransferase activity of the FLAG peptide-fused G6 polypeptide secreted and produced in insect cells was measured by using the eluate prepared in Example 8(6). The method of Example 7 was used for the activity measurement.
(§2) As substrates, oligosaccharides [LNnT, Galβ1-4GlcNAcβ1-3Galβ1-4GlcNAc (hereinafter referred to as “2LN”), Galβ1-4GlcNAcβ1-3Galβ1-4GlcNAcβ1-3Galβ1-4GlcNAc (hereinafter referred to as “3LN”), Galβ1-4GlcNAcβ1-3Galβ1-4GlcNAcβ1-3Galβ1-4GlcNAcβ1-3Galβ1-4GlcNAc (hereinafter referred to as “4LN”), Galβ1-4GlcNAcβ1-3Galβ1-4GlcNAcβ-3Galβ1-4GlcNAcβ1-3Galβ1-4GlcNAcβ1-3Galβ1-4GlcNAc (hereinafter referred to as “5LN”), or Galβ1-4(SO3-6)GlcNAcβ1-3Galβ1-4(SO3-6)GlcNAc (hereinafter referred to as “L2L2”)] were labeled with 2-aminobenzamide and used. 2-Aminobenzamide-labeling of oligosaccharides was carried out using SIGMA 2AB glycan labeling kit (manufactured by Oxford Glycoscience) according to the manufacture's instructions of the kit. LNnT was purchased from Oxford Glycosystems. Other oligosaccharides were obtained from Seikagaku Corporation.
Specifically, the reaction was carried out at 37° C. for 16 hours in 20 μl of an assay solution [150 mmol/l sodium cacodylate (pH 7.2), 50 mmol/l UDP-GlcNAc (manufactured by SIGMA), 0.4% Triton CF-54, 10 mmol/l MnCl2, 5 μmol/12-aminobenzamide-labeled sugar chain substrate, the above purified enzyme solution], and then the product was detected by high performance liquid chromatography (HPLC, details will be described below). As the enzyme, an eluate (1.5 μl) prepared from a culture supernatant of Sf21 infected with the recombinant virus derived from pVL1393-F2G6sec1 or an eluate (1.4 μl) prepared from a culture supernatant of Sf21 infected with the recombinant virus derived from pVL1393-F2G6sec2, prepared in Example 8(6), was used.
(§3) The assay solution after completion of the reaction was treated at 100° C. for 5 minutes and then mixed with 50 μl of pure water for HPLC and centrifuged at 10,000×g for 5 minutes to obtain the supernatant. To a tube containing the assay solution, 50 μl of pure water for HPLC was added again, the tube was washed, and suparnatant was obtained by centrifugation at 10,000×g for 5 minutes and was combined with the first supernatant. Next, the supernatant was passed through Ultrafree-MC column (manufactured by Millipore) and a portion thereof (10 μl) was subjected to HPLC. The Ultrafree-MC column was used according to the method described in the manufacture's instructions attached thereto.
(§4) The HPLC was carried out using TSK-gel ODS-80Ts Column (4.6×300 mm; manufactured by TOSOH) as a column and 0.02 mol/l ammonium acetate buffer containing 7% methanol (pH 4.0) as an eluant at an elution temperature of 50° C. and a flow rate of 1 ml/min.
(§5) The product was detected using a fluorescence spectrophotometer FP-920 (manufactured by JASCO Corporation) (excitation wavelength: 330 nm, radiation wavelength: 420 nm).
Also, a purified enzyme (G6sec2) was again prepared using the method shown in Example 8(6), its substrate specificity was again examined, and the results are also shown in Table 1 (Test 2 in Table 1). The purified enzyme (280 μl) was prepared from 30 ml of a culture supernatant of Sf21 infected with the recombinant virus derived from pVL1393-F2G6sec2, and the assay was carried out using a 4 μl portion thereof. Relative activities when the activity measured using 2-aminobenzamide-labeled LNnT as the substrate is defined as 100% are shown in the table.

G6sec2 [3] = biological target: T1, G6sec2; experiment: β1,3-N-acetylglucosaminyltransferase activity using glycolipids as substrates (purified enzyme); settings: glycolipid substrate; purified G6sec2
Description: Using glycolipids as the substrate, β1,3-N-acetylglucosaminyltransferase activity of the G6 polypeptide was measured according to known methods [FEBS, 462, 289 (1999), J. Biol. Chem., 269, 14730-14737 (1994), J. Biol. Chem., 267, 23507 (1992), J. Biol. Chem., 267, 2994 (1992)]. Specifically, the reaction was carried out at 37° C. for 16 hours in 20 μl of a reaction solution [150 mmol/l sodium cacodylate (pH 7.2), 10 mmol/l UDP-GlcNAc (manufactured by SIGMA), 480 μmol/l UDP—[^14C]GlcNAc (manufactured by Amersham), 0.4% Triton CF-54, 10 mmol/l MnCl2, […] glycolipid, purified enzyme (G6sec2)]. As the purified enzyme (G6sec2), 10 μl of the enzyme obtained in the above (2) was used. As glycolipids, lactosylceramide, paragloboside, galactosylceramide (Type I) and galactosylceramide (Type II) were used. Paragloboside was obtained from Yasunori Kushi at Tokyo Medical and Dental University. Other glycolipids were purchased from SIGMA. After completion of the reaction, 200 μl of 0.1 mol/l KCl was added and lightly centrifuged to obtain the supernatant. The supernatant was passed through Sep-Pak plus C18 Cartridge (manufactured by Waters) which had been washed once with 10 ml of methanol and equilibrated by washing twice with 10 ml of 0.1 mol/l KCl to adsorb the glycolipid in the supernatant onto the cartridge. After washing the cartridge twice with 10 ml of pure water for HPLC, the adsorbed glycolipid was eluted with 5 ml of methanol. After concentrating the eluate to about 10 μl using a vacuum dryer, the concentrated solution was plotted on a TLC plate (HPTLC plate Silica gel 60: manufactured by MERCK) and developed using a developing solvent comprising a composition of chloroform:methanol:water (containing 0.2% CaCl2)=65:35:8. After the development was carried out to a position 5 mm from the upper end of the TLC plate, the plate was dried and then the radioactivity incorporated into the glycolipid was measured using Bio Image Analyzer BAS 2000 (manufactured by Fuji Photo Film).

G6sec1 = biological target: T2, G6sec1 (Homo sapiens, UniProt Q9BYG0); experiment: β1,3-N-acetylglucosaminyltransferase activity of purified FLAG peptide-fused G6 polypeptide, 2-aminobenzamide-labeled oligosaccharide substrates; settings: 2-aminobenzamide-labeled oligosaccharides; LNnT defined as 100%
T2 construct: made in house; host or cells: Sf21 insect cells infected with pVL1393-F2G6sec1-derived recombinant baculovirus
T2 sequence (Q9BYG0 36-378): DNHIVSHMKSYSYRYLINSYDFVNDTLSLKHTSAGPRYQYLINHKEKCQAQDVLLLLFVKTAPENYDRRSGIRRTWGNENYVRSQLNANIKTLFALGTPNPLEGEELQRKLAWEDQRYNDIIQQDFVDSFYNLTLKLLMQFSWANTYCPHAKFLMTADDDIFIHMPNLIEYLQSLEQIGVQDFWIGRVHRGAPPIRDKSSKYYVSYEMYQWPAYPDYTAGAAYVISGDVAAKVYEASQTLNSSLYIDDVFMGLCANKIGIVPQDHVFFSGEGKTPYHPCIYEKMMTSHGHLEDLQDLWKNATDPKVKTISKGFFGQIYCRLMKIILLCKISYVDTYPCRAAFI
Description: as §1, §2
Specifically, the reaction was carried out at 37° C. for 16 hours in 20 μl of an assay solution [150 mmol/l sodium cacodylate (pH 7.2), 50 mmol/l UDP-GlcNAc (manufactured by SIGMA), 0.4% Triton CF-54, 10 mmol/l MnCl2, 5 μmol/12-aminobenzamide-labeled sugar chain substrate, the above purified enzyme solution], and then the product was detected by high performance liquid chromatography (HPLC, details will be described below). […]
as §3, §4, §5

Molecule	Relative activity (%) (G6sec2 [1])	Relative activity (%) Test 2 G6sec2 (G6sec2 [2])	Relative activity (%) Test 1 G6sec1 (G6sec1)	Relative activity (%) Test 1 G6sec2 (G6sec2 [2])	also measured
lacto-N-fucopentaose V [LNFP-V]	4.9%	–	–	–	–
Galβ1-4(SO3-6)GlcNAcβ1-3Galβ1-4(SO3-6)GlcNAc [L2L2]	–	5.9%	–	–	–
galactosylceramide (Type II)	–	–	–	–	β1,3-N-acetylglucosaminyltransferase activity for the glycolipid (G6sec2 [3]): did not show activity
CC(=O)N[C@H]1[C@H](O[C@H]2[C@@H](O)[C@@H](CO)O[C@@H](O[C@H]3[C@H](O)[C@@H](NC(C)=O)[C@H](O[C@H]4[C@@H](O)[C@@H](CO)O[C@@H](O[C@H]5[C@H](O)[C@@H](NC(C)=O)C(O)O[C@@H]5CO)[C@@H]4O)O[C@@H]3CO)[C@@H]2O)O[C@H](CO)[C@@H](O[C@@H]2O[C@H](CO)[C@H](O)[C@H](O)[C@H]2O)[C@@H]1O (stereo partly shown) [3LN, Galβ1-4GlcNAcβ1-3Galβ1-4GlcNAcβ1-3Galβ1-4GlcNAc]	–	79.2%	92.9%	95.8%	–
CC(=O)N[C@H]1[C@H](O[C@H]2[C@@H](O)[C@@H](CO)O[C@@H](O[C@@H]([C@H](O[C@@H]3O[C@@H](C)[C@@H](O)[C@@H](O)[C@@H]3O)[C@@H](O)C=O)[C@H](O)CO)[C@@H]2O)O[C@H](CO)[C@@H](O[C@@H]2O[C@@H](C)[C@@H](O)[C@@H](O)[C@@H]2O)[C@@H]1O[C@@H]1O[C@H](CO)[C@H](O)[C@H](O)[C@H]1O [LNDFH-II, lacto-N-difucohexaose II]	<0.05%	–	–	–	–
CC(=O)N[C@H]1[C@H](O[C@H]2[C@@H](O)[C@@H](CO)O[C@@H](O[C@H]3[C@H](O)[C@@H](O)C(O)O[C@@H]3CO)[C@@H]2O)O[C@H](CO)[C@@H](O)[C@@H]1O[C@@H]1O[C@H](CO)[C@H](O)[C@H](O)[C@H]1O (stereo partly shown) [LNT, lacto-N-tetraose]	5.5%	–	–	–	–
Galβ1-4GlcNAcβ1-3Galβ1-4GlcNAcβ1-3Galβ1-4GlcNAcβ1-3Galβ1-4GlcNAc [4LN]	–	10.0%	13.2%	21.5%	–
CC(=O)N[C@H]1[C@H](O[C@H]2[C@@H](O)[C@@H](CO)O[C@@H](O[C@@H]([C@H](O)[C@@H](O)C=O)[C@H](O)CO)[C@@H]2O)O[C@H](CO)[C@@H](O[C@@H]2O[C@@H](C)[C@@H](O)[C@@H](O)[C@@H]2O)[C@@H]1O[C@@H]1O[C@H](CO)[C@H](O)[C@H](O)[C@H]1O [LNFP-II, lacto-N-fucopentaose II]	<0.05%	–	–	–	–
Galβ1-4GlcNAcβ1-3Galβ1-4GlcNAcβ-3Galβ1-4GlcNAcβ1-3Galβ1-4GlcNAcβ1-3Galβ1-4GlcNAc [5LN]	–	12.3%	9.3%	11.5%	–
lacto-N-fucopentaose III [LNFP-III]	4.9%	–	–	–	–
